Starred links: 1 amine or outer side, 2 acyl side, 3 side chain; linkers in the order of their positions; H or OH if unused. Positions of bridges follow the written chain, without caps; N, C: chain ends. Non-standard residues stand in square brackets, D forms with d. Residues, ends and D or L forms follow the SMILES beside them. Chains are numbered I, II in the order given. NHNH = N(N[*:2])[*:1]
System: rat
Experiment: observation of undesirable effects after intrathecal administration
Type: in vivo
Protocol: A silicone catheter was introduced into the intrathecal space of a rat in the cervical region of the spine, having an external diameter of 0.64 mm and an internal diameter of 0.3 mm. The 12 cm long catheter was prepared in the following way: at a distance of 7.5 cm from the end of the catheter, a flange was made around it with soft silicone glue. The remaining 4.5 cm stretch of the catheter was extended to the outside and connected to a 30G needle mounted on a 25 microliter Hamilton syringe. The implantation of the catheter was made under general anaesthesia. After shaving the coat from the shoulders and neck, the rat was placed in a stereotactic apparatus. The 1.5 cm long incision was made centrally, front to rear, along the axis of the spine. After reaching the muscles, they were prised apart and access to the basal membrane was prepared. The basal membrane was incised. The prepared catheter, filled with a sterile physiological saline solution, was inserted the through the incision in the membrane to a depth of 7.5 cm towards the rear, so that its end was found at the location of the L1. The muscle and skin were sutured. After recovery from general anaesthesia the rats were placed in separate cages. Biphaline was administered and measurements were made during the second day following the operation. All epidural injections were made at a constant volume of 10 microliters. Following the injection, the catheter was rinsed with 15 microliters of sterile physiological saline solution. Analgesis was measured in relation to a tail retraction test to which a thermal stimulus was applied in the form of a beam of light with a temperature of 55° C. The temperature and focus of the light was such that the time of reaction of the rat fit within the 2-3 second margin. The maximum time that the tail was agitated with the pain-stimulating light stimulus was set as 7 seconds, so as not to cause tail burns connected with a prolonged exposure of tissues to temperature. The pain-stimulating stimulus threshold was determined previous to administration of the compounds, as well as at the 5, 15, 30, 60 and 120 minutes following the administration. The degree of analgesis was expressed as a percent of the maximum possible effect (denoted as % MPE) according to the following equation: […]

C[C@H](O)[C@@H](NC(=O)[C@@H](N)Cc1ccc(O)cc1)C(=O)NCC(=O)N[C@@H](Cc1ccccc1)C(=O)NNC(=O)[C@H](Cc1ccccc1)NC(=O)CNC(=O)[C@H](NC(=O)[C@@H](N)Cc1ccc(O)cc1)[C@H](C)O [(Tyr-D-Thr-Gly-Phe-NH—)2, (Tyr-D-Thr-Gly-Phe-NH-)2] (I: H-Y[dT]GF / II: H-Y[dT]GF; linker I:C-II:C via NHNH)
undesirable effects (0.05 micrograms intrathecal): No undesirable effects were observed

CC(C)C[C@@H](NC(=O)[C@@H](N)Cc1ccc(O)cc1)C(=O)NCC(=O)N[C@@H](Cc1c[nH]c2ccccc12)C(=O)NNC(=O)[C@H](Cc1c[nH]c2ccccc12)NC(=O)CNC(=O)[C@@H](CC(C)C)NC(=O)[C@@H](N)Cc1ccc(O)cc1 [(Tyr-D-Leu-Gly-Trp-NH—)2, (Tyr-D-Leu-Gly-Trp-NH-)2] (I: H-Y[dL]GW / II: H-Y[dL]GW; linker I:C-II:C via NHNH)
undesirable effects (0.05 micrograms intrathecal): No undesirable effects were observed

C[C@@H](NC(=O)[C@@H](N)Cc1ccc(O)cc1)C(=O)NCC(=O)N[C@@H](Cc1ccccc1)C(=O)NNC(=O)[C@H](Cc1ccccc1)NC(=O)CNC(=O)[C@@H](C)NC(=O)[C@@H](N)Cc1ccc(O)cc1 [biphaline, (Tyr-D-Ala-Gly-Phe-NH-)2]
undesirable effects (0.005 micrograms, then 0.003 micrograms every half hour for 8 hours, intrathecal): No undesirable effects were observed
undesirable effects (0.5 micrograms intrathecal): No undesirable effects were observed
duration of stiffness (25 micrograms intrathecal): 4 h
muscle stiffness (25 micrograms intrathecal, after three minutes following the injection): stiffness of limb and back muscles was observed
respiratory ability (25 micrograms intrathecal, during stiffness): respiratory ability was maintained
respiratory depression (extremely high dosages, as much as a thousand-fold the minimal effective analgesic dose): did not cause respiratory depression

NC(=O)CC[C@@H](NC(=O)[C@@H](N)Cc1ccc(O)cc1)C(=O)NCC(=O)N[C@@H](Cc1ccccc1)C(=O)NNC(=O)[C@H](Cc1ccccc1)NC(=O)CNC(=O)[C@@H](CCC(N)=O)NC(=O)[C@@H](N)Cc1ccc(O)cc1 [(Tyr-D-Gln-Gly-Phe-NH—)2, (Tyr-D-Gln-Gly-Phe-NH-)2] (I: H-Y[dQ]GF / II: H-Y[dQ]GF; linker I:C-II:C via NHNH)
undesirable effects (0.05 micrograms intrathecal): No undesirable effects were observed

CSCC[C@@H](NC(=O)[C@@H](N)Cc1ccc(O)cc1)C(=O)NCC(=O)N[C@@H](Cc1ccccc1)C(=O)NNC(=O)[C@H](Cc1ccccc1)NC(=O)CNC(=O)[C@@H](CCSC)NC(=O)[C@@H](N)Cc1ccc(O)cc1 [(Tyr-D-Met-Gly-Phe-NH—)2, (Tyr-D-Met-Gly-Phe-NH-)2] (I: H-Y[dM]GF / II: H-Y[dM]GF; linker I:C-II:C via NHNH)
undesirable effects (0.05 micrograms intrathecal): No undesirable effects were observed
